Assay results reported in US11040954B1, “CXCR3 receptor agonists” (RECEPTOS LLC, priority 2016, dated 2021).

Target: T1, CXCR3 (Homo sapiens, UniProt P49682)
T1 construct: host or cells: CHO-K1 (cAMP Hunter CHOK1 CXCR3 Gi cell line)
T1 sequence (P49682 1-368): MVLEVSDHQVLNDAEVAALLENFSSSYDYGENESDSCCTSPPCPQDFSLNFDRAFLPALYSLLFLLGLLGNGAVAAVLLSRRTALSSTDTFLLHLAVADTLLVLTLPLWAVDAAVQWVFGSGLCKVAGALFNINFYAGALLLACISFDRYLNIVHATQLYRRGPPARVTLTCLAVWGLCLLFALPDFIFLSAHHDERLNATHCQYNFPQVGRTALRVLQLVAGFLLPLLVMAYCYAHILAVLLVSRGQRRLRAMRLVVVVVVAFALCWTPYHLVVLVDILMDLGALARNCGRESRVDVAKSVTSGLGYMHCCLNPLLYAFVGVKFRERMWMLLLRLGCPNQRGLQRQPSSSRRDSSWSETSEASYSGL
Test: CXCR3 cAMP agonist assay (cAMP Hunter CHOK1 CXCR3 Gi cell line, forskolin-stimulated, HitHunter cAMP detection)
Type: cell-based
Conditions: cAMP Hunter CHOK1 CXCR3 Gi cells, 20 μM forskolin, 30 minutes; read-out: Activity (CXCR3 cAMP agonist assay compound EC50)
Procedure: The cAMP Hunter™ CHOK1 CXCR3 Gi cell line was purchased from DiscoveRx. Cells were seeded into a 96-well white assay plate at 50,000 cells/well/94 μl assay buffer (Hank's Buffered Saline Solution, 10 mM HEPES, 0.1% fatty acid-free BSA, pH 7.4) and immediately assayed in suspension. Forskolin was added to 20 μM (5 μl of 400 μM stock) simultaneously with a 12-point dose response curve of compound at 0-10 μM (1 μl of 100× stock in 100% DMSO), and cells were incubated for 30 minutes. A cAMP standard curve is run as an assay control. A CXCL11 dose response was included to determine maximum efficacy. Direct detection of cAMP was carried out using the DiscoveRx HitHunter cAMP kit according to manufacturer's instructions, and luminescence was read using a SpectraMax M5 plate reader.

Structure (SMILES) | EC50
CCc1c(NC(=O)[C@H](CCN)NC(=O)[C@@H]2Cc3ccccc3CN2C(=O)CCC(=O)c2ccccc2)ccc(Cl)c1C [Compound 2-54] | > 500 nM
CN(C)CCCC[C@H](NC(=O)[C@@H]1Cc2ccccc2CN1C(=O)CCC(=O)c1ccccc1)C(=O)Nc1ccc(Cl)c(Cl)c1 [Compound 1-31] | 250 to 500 nM
Cc1c(F)cc(NC(=O)[C@H](CCN)NC(=O)[C@@H]2Cc3ccccc3CN2C(=O)CCC(=O)c2ccccc2)cc1Cl [Compound 4-19] | < 50 nM
NCCCC[C@H](NC(=O)[C@@H]1Cc2ccccc2CN1C(=O)CCC(=O)c1ccccc1)C(=O)Nc1ccc(Cl)cc1 [Compound 1-2] | 250 to 500 nM
NCCCC[C@H](NC(=O)[C@@H]1Cc2ccccc2CN1C(=O)CCC(=O)c1ccccc1)C(=O)Nc1cccc(C(F)(F)F)c1 [Compound 1-13] | 50 to 250 nM
NCC[C@H](NC(=O)[C@@H]1Cc2ccccc2CN1C(=O)CCC(=O)c1ccccc1)C(=O)Nc1ccc2c(c1Cl)CCC2 [Compound 2-77] | 50 to 250 nM
NCCCC[C@H](NC(=O)[C@@H]1Cc2ccccc2CN1C(=O)CCC(=O)c1ccccc1)C(=O)Nc1ccc(Cl)cc1F [Compound 1-23] | 50 to 250 nM
Cc1cc(NC(=O)[C@H](CCN)NC(=O)[C@@H]2Cc3ccccc3CN2C(=O)CCC(=O)c2ccccc2)cc(C)c1Cl [Compound 2-39] | < 50 nM
COc1cc(F)c(C)cc1NC(=O)[C@H](CCN)NC(=O)[C@@H]1Cc2ccccc2CN1C(=O)CCC(=O)c1ccccc1 [Compound 2-60] | 50 to 250 nM
Cc1cc(NC(=O)[C@H](CCCNC(=N)N)NC(=O)[C@@H]2Cc3ccccc3CN2C(=O)CCC(=O)c2ccccc2)ccc1Cl [Compound 1-32] | < 50 nM
Cc1ccc(NC(=O)[C@H](CCCCN)NC(=O)[C@@H]2Cc3ccccc3CN2C(=O)CCC(=O)c2ccccc2)cc1C(F)(F)F [Compound 1-30] | < 50 nM
NCC[C@H](NC(=O)[C@@H]1Cc2ccccc2CN1C(=O)CCC(=O)c1ccccc1)C(=O)Nc1ccc(F)c(F)c1 [Compound 2-8] | > 500 nM
Cc1cc(NC(=O)[C@H](CCCCN)NC(=O)[C@@H]2Cc3ccccc3CN2C(=O)CCC(=O)c2ccccc2)ccc1C(F)(F)F [Compound 1-28] | 50 to 250 nM
Cc1cc(NC(=O)[C@H](Cc2ccncc2)NC(=O)[C@@H]2Cc3ccccc3CN2C(=O)CCC(=O)c2ccccc2)ccc1Cl [Compound 3-4] | 50 to 250 nM
NCCCC[C@H](NC(=O)[C@@H]1Cc2ccccc2CN1C(=O)CCC(=O)c1ccccc1)C(=O)Nc1cc(Cl)cc(Cl)c1 [Compound 1-17] | 50 to 250 nM
Cc1ccc(NC(=O)[C@H](CCCNC(=N)N)NC(=O)[C@@H]2Cc3ccccc3CN2C(=O)CCC(=O)c2ccccc2)cc1C [Compound 1-33] | < 50 nM
Cc1cc(NC(=O)[C@H](CCN)NC(=O)[C@@H]2Cc3ccccc3CN2C(=O)CCC(=O)N2CCN(C)CC2)ccc1Cl [Compound 10-3] | < 50 nM
CCc1ccc(NC(=O)[C@H](CCCCN)NC(=O)[C@@H]2Cc3ccccc3CN2C(=O)CCC(=O)c2ccccc2)cc1CC [Compound 1-16] | 50 to 250 nM

The next lines start with the values.

EC50 | Structure (SMILES)
< 50 nM | Cc1cc(NC(=O)[C@H](CCN)NC(=O)[C@@H]2Cc3ccccc3CN2C(=O)CCC(=O)N2CCC[C@@H](C)C2)ccc1Cl [Compound 12-57]
> 500 nM | Cc1cc(NC(=O)[C@H](CCN)NC(=O)[C@@H]2Cc3ccccc3CN2C(=O)CCC(=O)NCCOC(C)C)ccc1Cl [Compound 12-89]
< 50 nM | CC1(C)CCCCN1C(=O)CCC(=O)N1Cc2ccccc2C[C@H]1C(=O)NC(CC12CC(N)(C1)C2)C(=O)Nc1ccc(Cl)c(Cl)c1F (stereo partly drawn) [Compound 33-1, (3S)—N-(3-(3-aminobicyclo[1.1.1]pentan-1-yl)-1-((3,4-dichloro-2-fluorophenyl)amino)-1-oxopropan-2-yl)-2-(4-(2,2-dimethylpiperidin-1-yl)-4-oxobutanoyl)-1,2,3,4-tetrahydroisoquinoline-3-carboxamide]
> 500 nM | Cc1cc(NC(=O)[C@H](CCN)NC(=O)[C@@H]2Cc3ccccc3CN2C(=O)CCC(=O)NC2(C(F)(F)F)CC2)ccc1Cl [Compound 12-85]
< 50 nM | Cc1cc(NC(=O)[C@H](CCN)NC(=O)[C@@H]2Cc3ccccc3CN2C(=O)CCC(=O)N2CCC(C(C)C)C2)ccc1Cl (stereo partly shown) [Compound 12-74]
< 50 nM | Cc1cc(NC(=O)[C@H](CCN)NC(=O)[C@@H]2Cc3ccccc3CN2C(=O)CCC(=O)NCCC(C)(C)C)ccc1Cl [Compound 12-2]
50 to 250 nM | Cc1cc(NC(=O)[C@H](CCN)NC(=O)[C@@H]2Cc3ccccc3CN2C(=O)CCC(=O)N2CCC(c3ccccc3)C2)ccc1Cl (stereo partly shown) [Compound 12-54]
< 50 nM | Cc1cc(NC(=O)[C@H](CCN)NC(=O)[C@@H]2Cc3ccccc3CN2C(=O)CCC(=O)N2CCC[C@@H]2C)ccc1Cl [Compound 12-45]
< 50 nM | CC1(C)CCN(C(=O)CCC(=O)N2Cc3ccccc3C[C@H]2C(=O)N[C@@H](CCN)C(=O)Nc2ccc(Cl)c(Cl)c2F)CC1 [Compound 15-1, (S)—N—((S)-4-amino-1-((3,4-dichloro-2-fluorophenyl)amino)-1-oxobutan-2-yl)-2-(4-(4,4-dimethylpiperidin-1-yl)-4-oxobutanoyl)-1,2,3,4-tetrahydroisoquinoline-3-carboxamide]
< 50 nM | Cc1cc(NC(=O)[C@H](CCN)NC(=O)[C@@H]2Cc3ccccc3CN2C(=O)CCC(=O)N2CCC(C(C)(C)C)C2)ccc1Cl (stereo partly shown) [Compound 12-75]
> 500 nM | Cc1cc(NC(=O)[C@H](CCN)NC(=O)[C@@H]2Cc3ccccc3CN2C(=O)CCC(=O)NCc2ccccc2)ccc1Cl [Compound 12-18]
< 50 nM | COC1CCN(C(=O)CCC(=O)N2Cc3ccccc3C[C@H]2C(=O)N[C@@H](CCN)C(=O)Nc2ccc(Cl)c(C)c2)CC1 [Compound 12-42]
< 50 nM | CC1(C)CCCN(C(=O)CCC(=O)N2Cc3ccccc3C[C@H]2C(=O)NC2(C(=O)Nc3ccc(Cl)c(Cl)c3F)CCNCC2)C1 [Compound 12-130]
< 50 nM | Cc1cc(OC(F)(F)F)c(NC(=O)[C@H](CCN)NC(=O)[C@@H]2Cc3ccccc3CN2C(=O)CCC(=O)c2ccccc2)cc1Cl [Compound 14-24]
< 50 nM | CC(C)C1CCCN1C(=O)CCC(=O)N1Cc2ccccc2C[C@H]1C(=O)N[C@@H](CCN)C(=O)Nc1ccc(Cl)c(Cl)c1F (stereo partly shown) [Compound 15-10]
250 to 500 nM | Cc1cc(NC(=O)[C@H](CCN)NC(=O)[C@@H]2Cc3ccccc3CN2C(=O)CCC(=O)N2CC(F)C2)ccc1Cl [Compound 12-19]
< 50 nM | Cc1cc(NC(=O)[C@H](CCN)NC(=O)[C@@H]2Cc3ccccc3CN2C(=O)CCC(=O)N2CCc3ccccc3C2)ccc1Cl [Compound 12-76]
50 to 250 nM | CN(C(=O)CCC(=O)N1Cc2ccccc2C[C@H]1C(=O)NC1(C(=O)Nc2ccc(Cl)c(Cl)c2F)CCNCC1)C(C)(C)C [Compound 12-125]
< 50 nM | Cc1ccc(OC(F)(F)F)c(NC(=O)[C@H](CCN)NC(=O)[C@@H]2Cc3ccccc3CN2C(=O)CCC(=O)c2ccccc2)c1 [Compound 14-25]
< 50 nM | Cc1cc(NC(=O)[C@H](CCN2CCC(O)CC2)NC(=O)[C@@H]2Cc3ccccc3CN2C(=O)CCC(=O)c2ccccc2)ccc1Cl [Compound 17-1, (S)—N—((S)-1-((4-chloro-3-methylphenyl)amino)-4-(4-hydroxypiperidin-1-yl)-1-oxobutan-2-yl)-2-(4-oxo-4-phenylbutanoyl)-1,2,3,4-tetrahydroisoquinoline-3-carboxamide]
250 to 500 nM | CC(=O)N1CCN(CC[C@H](NC(=O)[C@@H]2Cc3ccccc3CN2C(=O)CCC(=O)c2ccccc2)C(=O)Nc2ccc(Cl)c(C)c2)CC1 [Compound 19-1, (S)—N—((S)-4-(4-acetylpiperazin-1-yl)-1-((4-chloro-3-methylphenyl)amino)-1-oxobutan-2-yl)-2-(4-oxo-4-phenylbutanoyl)-1,2,3,4-tetrahydroisoquinoline-3-carboxamide]
> 500 nM | CN(C)CC1CCCCN1C(=O)CCC(=O)N1Cc2ccccc2C[C@H]1C(=O)N[C@@H](CCN)C(=O)Nc1ccc(Cl)c(Cl)c1F (stereo partly shown) [Compound 15-17]
< 50 nM | CC1(C)CCCN(C(=O)CCC(=O)N2Cc3ccccc3C[C@H]2C(=O)N[C@@H](CCN2CCC(O)CC2)C(=O)Nc2ccc(Cl)c(Cl)c2F)C1 [Compound 26-3]
< 50 nM | CC(C)CC1CCCCN1C(=O)CCC(=O)N1Cc2ccccc2C[C@H]1C(=O)N[C@@H](CCN)C(=O)Nc1ccc(Cl)c(Cl)c1F (stereo partly shown) [Compound 15-20]
< 50 nM | Cc1cc(NC(=O)[C@H](CCN)NC(=O)[C@@H]2Cc3ccccc3CN2C(=O)CCC(=O)N2CCCC2(C)C)ncc1Cl [Compound 12-157]
< 50 nM | Cc1cc(NC(=O)[C@H](CCN)NC(=O)[C@@H]2Cc3ccccc3CN2C(=O)CCC(=O)N2CCCC(C)(C)C2)ncc1Cl [Compound 12-155]
< 50 nM | Cc1cc(NC(=O)[C@H](CCN)NC(=O)[C@@H]2Cc3ccccc3CN2C(=O)CCC(=O)N2CCC(F)(F)CC2)ccc1Cl [Compound 12-4]
250 to 500 nM | CN1CN(C(=O)CCC(=O)N2Cc3ccccc3C[C@H]2C(=O)N[C@@H](CCN)C(=O)Nc2ccc(Cl)c(Cl)c2F)CC1=O [Compound 15-45]
